In brackets after ≈: the same amount, converted by molar mass.
Assays:
Assay in all cases: In vitro antibacterial activity, two-fold agar-plate dilution method
Type in all cases: cell-based
[1] = tested on: Staphylococcus aureus 209-P JC-1; conditions: HI-agar, 37° C., 20 hours
Method: (§1) In vitro antibacterial activity was determined by the two-fold agar-plate dilution method as described below. One loopful of an overnight culture of each test strain in Trypticase-soy broth (approximately 10^6 viable cells per ml.) was streaked on heat infusion agar (HI-agar) containing graded concentrations of antibiotics, and the minimal inhibitory concentration (MIC) was expressed in terms of μg./ml. after incubation at 37° C. for 20 hours.

[2] = tested on: Proteus vulgaris LAM-1025; conditions: LAM1025, HI-agar, 37° C., 20 hours
Method: as §1

[3] = tested on: Esherichia coli 327; conditions: HI-agar, 37° C., 20 hours
Method: as §1

[4] = tested on: Pseudmonas aeruginose NCTC-10490; conditions: HI-agar, 37° C., 20 hours
Method: as §1

[5] = tested on: Proteus mirabilis 525; conditions: HI-agar, 37° C., 20 hours
Method: as §1

Compound | MIC [1] [mg/L] | MIC [2] [mg/L] | MIC [3] [mg/L] | MIC [4] [mg/L] | MIC [5] [mg/L]
CON=C(C(=O)NC1C(=O)N2C(C(=O)O)=C(CSc3nncs3)CS[C@H]12)C1=CSCCS1 (some centres unmarked) [compound 4, 7-[2-(2,3-dihydro-1,4-dithiin-5-yl)2-methoxyiminoacetamido]-3-(1,3,4-thiadiazol-2-yl)thiomethyl-3-cephem-4-carboxylic acid] | 0.39 (≈ 0.734 µM) | 6.25 (≈ 11.8 µM) | 0.78 (≈ 1.47 µM) | 50 (≈ 94 µM) | 3.13 (≈ 5.89 µM)
CON=C(C(=O)NC1C(=O)N2C(C(=O)O)=C(COC(N)=O)CS[C@H]12)C1=CSCCO1 (some centres unmarked) [compound 3, 7-[2-(2,3-dihydro-1,4-oxathiin-6-yl)-2-methoxyiminoacetamido]-3-carbamoyloxymethyl-3-cephem-4-carboxylic acid] | 6.25 (≈ 13.6 µM) | 100 (≈ 218 µM) | 0.78 (≈ 1.7 µM) | 50 (≈ 109 µM) | 0.78 (≈ 1.7 µM)
CO/N=C(\C(=O)NC1C(=O)N2C(C(=O)O)=C(COC(C)=O)CSC12)C1=CSCCO1 (centres unmarked) [compound 1, 7-[2-(2,3-dihydro-1,4-oxathiin-6-yl)-2-methoxyiminoacetamido]cephalosporanic acid] | 3.13 (≈ 6.84 µM) | 12.5 (≈ 27.3 µM) | 0.78 (≈ 1.7 µM) | 25 (≈ 54.6 µM) | 0.78 (≈ 1.7 µM)
CON=C(C(=O)NC1C(=O)N2C(C(=O)O)=CCS[C@H]12)C1=CSCCS1 (some centres unmarked) [compound 5, 7-[2-(2,3-dihydro-1,4-dithiin-5-yl)-2-methoxyiminoacetamido]-3-cephem-4-carboxylic acid] | 6.25 (≈ 15.6 µM) | 3.13 (≈ 7.8 µM) |  | 400 (≈ 996 µM) | 
CON=C(C(=O)NC1C(=O)N2C(C(=O)O)=C(CSc3nnnn3C)CS[C@H]12)C1=CSCCO1 (some centres unmarked) [compound 2, 7-[2-(2,3-dihydro-1,4-oxathiin-6-yl)-2-methoxyiminoacetamido]-3-(1-methyl-1H-tetrazol-5-yl)thiomethyl-3-cephem-4-carboxylic acid] | 3.13 (≈ 6.09 µM) | 25 (≈ 48.7 µM) | 0.2 (≈ 0.389 µM) | 12.5 (≈ 24.3 µM) | 0.78 (≈ 1.52 µM)

Source: patent US4242510A, “Cephalosporin compounds and processes for the preparation thereof” (Fujisawa Pharmaceutical Co., Ltd., priority 1976, dated 1980)
